US20030032003A1, “IN VIVO SELECTION” (priority 2000, published 2003)

System: Hprt +/+ mice
Assay: Histopathological analysis of mouse tissues after 6TG
Details: Hprt +/+

## Nc1nc(S)c2[nH]cnc2n1 [6TG, 2-amino-6-merkaptopurine]
25 mg/kg i.p.
  Bone marrow Depletion, severity grade: 3.5 ± 0.5
50 mg/kg i.p.
  Bone marrow Depletion, severity grade: 4
  Bone marrow Necrosis, severity grade: 3
  Gastric epithelium Atrophy, severity grade: 2
  Gastric epithelium Necrosis, severity grade: 1
  Intestinal epithelium Atrophy, severity grade: 2
  Intestinal epithelium Necrosis, severity grade: 1
  Liver Atrophy necrosis, severity grade: 3
  Spleen Lymphoid depletion, severity grade: 1
100 mg/kg i.p.
  Bone marrow Depletion, severity grade: 4
  Bone marrow Necrosis, severity grade: 3
  Gastric epithelium Atrophy, severity grade: 3
  Gastric epithelium Necrosis, severity grade: 3
  Intestinal epithelium Atrophy, severity grade: 3
  Intestinal epithelium Necrosis, severity grade: 3
  Liver Atrophy necrosis, severity grade: 2
  Spleen Lymphoid depletion, severity grade: 1
  Spleen Necrosis, severity grade: 2
150 mg/kg i.p.
  Bone marrow Depletion, severity grade: 4
  Bone marrow Necrosis, severity grade: 4
  Gastric epithelium Atrophy, severity grade: 1
  Gastric epithelium Necrosis, severity grade: 1
  Intestinal epithelium Atrophy, severity grade: 1
  Intestinal epithelium Necrosis, severity grade: 1
  Liver Atrophy necrosis, severity grade: 2
  Liver Centrilobular hypertrophy, severity grade: 2
  Spleen Lymphoid depletion, severity grade: 2
  Spleen Necrosis, severity grade: 2
225 mg/kg i.p.
  Bone marrow Depletion, severity grade: 3
  Bone marrow Necrosis, severity grade: 3
  Gastric epithelium Atrophy, severity grade: 1
  Gastric epithelium Necrosis, severity grade: 1
  Intestinal epithelium Atrophy, severity grade: 1
  Intestinal epithelium Necrosis, severity grade: 1
  Liver Atrophy necrosis, severity grade: 2
  Liver Centrilobular hypertrophy, severity grade: 1
  Liver Fatty change, severity grade: 1
  Spleen Lymphoid depletion, severity grade: 3
  Spleen Necrosis, severity grade: 4
338 mg/kg i.p.
  Bone marrow Depletion, severity grade: 4
  Bone marrow Necrosis, severity grade: 3
  Gastric epithelium Atrophy, severity grade: 3
  Gastric epithelium Necrosis, severity grade: 3
  Intestinal epithelium Atrophy, severity grade: 3
  Intestinal epithelium Necrosis, severity grade: 3
  Liver Atrophy necrosis, severity grade: 1
  Liver Centrilobular hypertrophy, severity grade: 2
  Liver Fatty change, severity grade: 2
  Spleen Lymphoid depletion, severity grade: 2
  Spleen Necrosis, severity grade: 1
507 mg/kg i.p.
  Bone marrow Depletion, severity grade: 3
  Bone marrow Necrosis, severity grade: 4
  Gastric epithelium Atrophy, severity grade: 1
  Gastric epithelium Necrosis, severity grade: 1
  Intestinal epithelium Atrophy, severity grade: 1
  Intestinal epithelium Necrosis, severity grade: 1
  Liver Atrophy necrosis, severity grade: 1
  Liver Centrilobular hypertrophy, severity grade: 1
  Liver Fatty change, severity grade: 2
  Spleen Lymphoid depletion, severity grade: 1
  Spleen Necrosis, severity grade: 2
720 mg/kg i.p.
  Bone marrow Depletion, severity grade: 4
  Bone marrow Necrosis, severity grade: 4
  Gastric epithelium Atrophy, severity grade: 1
  Gastric epithelium Necrosis, severity grade: 1
  Intestinal epithelium Atrophy, severity grade: 1
